Type in all cases: cell-based
The test system of assay [1] is A. baumannii MP-15. The experiment in a line: MIC determination by CLSI broth dilution, A. baumannii MP-15. The note with it: Acinetobacter baumannii, MP15, strain MP-15, read-out: MIC A. baumanii MP-15.
Assay [2] relates to P. aeruginosa MP-3. The experiment in a line: MIC determination by CLSI broth dilution, P. aeruginosa MP-3. The conditions noted are these: Pseudomonas aeruginosa, MP3, strain MP-3.
In assay [3] the test system is S. aureus MP-12. Kind of assay: microbe, parasite or virus in culture. The conditions noted are these: Staphylococcus aureus, MP12, read-out: MIC S. aureus MP-12.
The subject of assay [4] is K. pneumoniae MP-648. Kind of assay: MIC determination by CLSI broth dilution, K. pneumoniae MP-648. The note with it: Klebsiella pneumoniae, MP648, CLSI broth dilution; strain MP-648. For orientation: Dilution methods test growth across graded concentrations, often in twofold steps.
The test system of assay [5] is E. coli MP-4. The experiment in a line: MIC determination by CLSI broth dilution, E. coli MP-4. The note with it: Escherichia coli, MP4, CLSI broth dilution; strain MP-4.

In brackets after ≈: the same amount, converted by molar mass.

Turning to `CO[C@]1(C)C[C@@H](C)CN(C)[C@H]([C@H](O)[C@@H](O)CO)COC(=O)C(C)(C)C(=O)[C@H](C)[C@H]1O[C@@H]1O[C@H](C)C[C@H](N(C)C)[C@H]1O` [Compound 201], the MIC in assay [1] is over 32 µg/mL; in assay [2], over 32 µg/mL; in assay [3] it was over 32 µg/mL; in assay [4] it was over 32 µg/mL; in assay [5] it was 4 to 32 µg/mL (≈ 6.77 to 54.2 µM).

With `CO[C@]1(C)C[C@@H](C)CN(C)[C@](C)(C[C@H]2C[C@H](N(C)C(C)C)C2)COC(=O)C(C)(C)C(=O)[C@H](C)[C@H]1O[C@@H]1O[C@H](C)C[C@H](N(C)C)[C@H]1O` [Compound 198], the MIC in assay [1] is over 32 µg/mL; in assay [2], over 32 µg/mL; in assay [3], 4 to 32 µg/mL (≈ 6.12 to 48.9 µM); in assay [4] it was over 32 µg/mL; in assay [5], 4 to 32 µg/mL (≈ 6.12 to 48.9 µM).

With `CO[C@]1(C)C[C@@H](C)CN(C)[C@@H](CN2CCN(C(C)C)CC2)COC(=O)C(C)(C)C(=O)[C@H](C)[C@H]1O[C@@H]1O[C@H](C)C[C@H](N(C)C)[C@H]1O` [Compound 156, (3S,6R,8R,9R,10R)-9-(((2S,3R,4S,6R)-4-(dimethylamino)-3-hydroxy-6-methyltetrahydro-2H-pyran-2-yl)oxy)-3-((4-isopropylpiperazin-1-yl)methyl)-8-methoxy-4,6,8,10,12,12-hexamethyl-1-oxa-4-azacyclotridecane-11,13-dione], the MIC in assay [1] was over 32 µg/mL; in assay [2] it was over 32 µg/mL; in assay [3] it was 4 to 32 µg/mL (≈ 6.24 to 49.9 µM); in assay [4] it was 4 to 32 µg/mL (≈ 6.24 to 49.9 µM); in assay [5], under 4 µg/mL.

As to `CCN1CCN(C[C@H]2COC(=O)C(C)(C)C(=O)[C@H](C)[C@@H](O[C@@H]3O[C@H](C)C[C@H](N(C)C)[C@H]3O)[C@](C)(OC)C[C@@H](C)CN2CC)CC1` [Compound 158, (3S,6R,8R,9R,10R)-9-(((2S,3R,4S,6R)-4-(Dimethylamino)-3-hydroxy-6-methyltetrahydro-2H-pyran-2-yl)oxy)-4-ethyl-3-((4-ethylpiperazin-1-yl)methyl)-8-methoxy-6,8,10,12,12-pentamethyl-1-oxa-4-azacyclotridecane-11,13-dione], the MIC in assay [1] is over 32 µg/mL; in assay [2], over 32 µg/mL; in assay [3] it was 4 to 32 µg/mL (≈ 6.24 to 49.9 µM); in assay [4], 4 to 32 µg/mL (≈ 6.24 to 49.9 µM); in assay [5], under 4 µg/mL.

For the compound `CCN1C[C@H](C)C[C@@](C)(OC)[C@H](O[C@@H]2O[C@H](C)C[C@H](N(C)C)[C@H]2O)[C@@H](C)C(=O)C(C)(C)C(=O)OC[C@H]1C=C1CCN(C2Cc3ccccc3C2)CC1` [Compound 191], the MIC in assay [1] was 4 to 32 µg/mL (≈ 5.51 to 44.1 µM); in assay [2], over 32 µg/mL; in assay [3], under 4 µg/mL; in assay [4], under 4 µg/mL; in assay [5], under 4 µg/mL.

`CCN(C)[C@H]1C[C@H](C[C@]2(C)COC(=O)C(C)(C)C(=O)[C@H](C)[C@@H](O[C@@H]3O[C@H](C)C[C@H](N(C)C)[C@H]3O)[C@](C)(OC)C[C@@H](C)CN2C)C1` [Compound 196]: the MIC in assay [1] is over 32 µg/mL; in assay [2] it was over 32 µg/mL; in assay [3], 4 to 32 µg/mL (≈ 6.25 to 50 µM); in assay [4], over 32 µg/mL; in assay [5] it was under 4 µg/mL.

`CO[C@]1(C)C[C@@H](C)CN(C)[C@H](CC2CCN(CCO)CC2)COC(=O)C(C)(C)C(=O)[C@H](C)[C@H]1O[C@@H]1O[C@H](C)C[C@H](N(C)C)[C@H]1O` [Compound 178]: the MIC in assay [1] was over 32 µg/mL; in assay [2], over 32 µg/mL; in assay [3], over 32 µg/mL; in assay [4] it was under 4 µg/mL; in assay [5] it was under 4 µg/mL.

On to `CO[C@]1(C)C[C@@H](C)CN(C)[C@H]([C@](C)(O)CCN(C)CCO)COC(=O)C(C)(C)C(=O)[C@H](C)[C@H]1O[C@@H]1O[C@H](C)C[C@H](N(C)C)[C@H]1O` [Compound 228], for which the MIC was over 32 µg/mL in assay [1]; over 32 µg/mL in assay [2]; over 32 µg/mL in assay [3]; under 4 µg/mL in assay [4]; 4 to 32 µg/mL (≈ 6.19 to 49.5 µM) in assay [5].

Regarding `CCN1C[C@H](C)C[C@@](C)(OC)[C@H](O[C@@H]2O[C@H](C)C[C@H](N(C)C)[C@H]2O)[C@@H](C)C(=O)C(C)(C)C(=O)OC[C@H]1[C@H](O)CCN(C)Cc1ccccc1` [Compound 194], the MIC in assay [1] is 4 to 32 µg/mL (≈ 5.78 to 46.2 µM); in assay [2], over 32 µg/mL; in assay [3] it was 4 to 32 µg/mL (≈ 5.78 to 46.2 µM); in assay [4] it was under 4 µg/mL; in assay [5] it was under 4 µg/mL.

Consider `CCN1C[C@H](C)C[C@@](C)(OC)[C@H](O[C@@H]2O[C@H](C)C[C@H](N(C)C)[C@H]2O)[C@@H](C)C(=O)C(C)(C)C(=O)OC[C@@H]1CCCN1CCN(c2ccncc2)CC1` [Compound 181], for which the MIC in assay [1] is over 32 µg/mL; in assay [2] it was over 32 µg/mL; in assay [3] it was over 32 µg/mL; in assay [4], over 32 µg/mL; in assay [5], under 4 µg/mL.

Turning to `CN[C@H]1C[C@H](C[C@]2(C)COC(=O)C(C)(C)C(=O)[C@H](C)[C@@H](O[C@@H]3O[C@H](C)C[C@H](N(C)C)[C@H]3O)[C@](C)(OC)C[C@@H](C)CN2C)C1` [Compound 199], the MIC in assay [1] is over 32 µg/mL; in assay [2] it was over 32 µg/mL; in assay [3] it was 4 to 32 µg/mL (≈ 6.54 to 52.3 µM); in assay [4] it was over 32 µg/mL; in assay [5], 4 to 32 µg/mL (≈ 6.54 to 52.3 µM).

On to `CO[C@]1(C)C[C@@H](C)CN(C)[C@H](/C=C/CN2CCCC2)COC(=O)C(C)(C)C(=O)[C@H](C)[C@H]1O[C@@H]1O[C@H](C)C[C@H](N(C)C)[C@H]1O` [Compound 153], for which the MIC was over 32 µg/mL in assay [1]; over 32 µg/mL in assay [2]; 4 to 32 µg/mL (≈ 6.56 to 52.5 µM) in assay [3]; under 4 µg/mL in assay [4]; under 4 µg/mL in assay [5].

As for `CCN1C[C@H](C)C[C@@](C)(OC)[C@H](O[C@@H]2O[C@H](C)C[C@H](N(C)C)[C@H]2O)[C@@H](C)C(=O)C(C)(C)C(=O)OC[C@H]1[C@H](O)CCN(C)C(C)C` [Compound 224], the MIC in assay [1] was over 32 µg/mL; in assay [2], over 32 µg/mL; in assay [3], 4 to 32 µg/mL (≈ 6.21 to 49.7 µM); in assay [4], 4 to 32 µg/mL (≈ 6.21 to 49.7 µM); in assay [5], under 4 µg/mL.

For `CCN1C[C@H](C)C[C@@](C)(OC)[C@H](O[C@@H]2O[C@H](C)C[C@H](N(C)C)[C@H]2O)[C@@H](C)C(=O)C(C)(C)C(=O)OC[C@H]1[C@H](O)CCN(C)CCO` [Compound 225], the MIC in assay [1] is over 32 µg/mL; in assay [2] it was over 32 µg/mL; in assay [3], 4 to 32 µg/mL (≈ 6.19 to 49.5 µM); in assay [4] it was 4 to 32 µg/mL (≈ 6.19 to 49.5 µM); in assay [5], under 4 µg/mL.

As to `CCCN(CCC)CC[C@@H](O)[C@@H]1COC(=O)C(C)(C)C(=O)[C@H](C)[C@@H](O[C@@H]2O[C@H](C)C[C@H](N(C)C)[C@H]2O)[C@](C)(OC)C[C@@H](C)CN1CC` [Compound 223], the MIC in assay [1] was over 32 µg/mL; in assay [2], over 32 µg/mL; in assay [3], 4 to 32 µg/mL (≈ 5.95 to 47.6 µM); in assay [4], 4 to 32 µg/mL (≈ 5.95 to 47.6 µM); in assay [5], under 4 µg/mL.

As to `CO[C@]1(C)C[C@@H](C)CN(C)[C@](C)(C[C@H]2C[C@H](N(C)CC3CC3)C2)COC(=O)C(C)(C)C(=O)[C@H](C)[C@H]1O[C@@H]1O[C@H](C)C[C@H](N(C)C)[C@H]1O` [Compound 197], the MIC in assay [1] was over 32 µg/mL; in assay [2] it was over 32 µg/mL; in assay [3], 4 to 32 µg/mL (≈ 6.01 to 48.1 µM); in assay [4], 4 to 32 µg/mL (≈ 6.01 to 48.1 µM); in assay [5], under 4 µg/mL.

The values above are taken from patent US12552825B2 (Zikani Therapeutics, Inc., priority 2019, dated 2026).
